Source: ChEMBL document CHEMBL1139415, “Highly functionalized 7-azaindoles as selective PPAR gamma modulators” (Bioorg Med Chem Lett, 2008)
pEC50, pIC50: −log10 of the molar value. The source made the active and inactive calls. No cut-off for these calls is given here.

Experiments:
Mus musculus [1] = assay: Antiglycemic activity in db/db mouse assessed as glucose correction at 10 mg/kg, po administered daily for 11 days; assay type: functional
Cytochrome P450 2C9 = Cytochrome P450 2C9 (Homo sapiens, UniProt P11712); assay: Inhibition of CYP2C9; assay type: ADME
[2] = biological target: T1, Peroxisome proliferator-activated receptor gamma (Homo sapiens, UniProt P37231); assay: Displacement of [3H]2AD-5075 from GST-tagged human PPARgamma receptor expressed in Escherichia coli BL21
T1 sequence (P37231 whole entry): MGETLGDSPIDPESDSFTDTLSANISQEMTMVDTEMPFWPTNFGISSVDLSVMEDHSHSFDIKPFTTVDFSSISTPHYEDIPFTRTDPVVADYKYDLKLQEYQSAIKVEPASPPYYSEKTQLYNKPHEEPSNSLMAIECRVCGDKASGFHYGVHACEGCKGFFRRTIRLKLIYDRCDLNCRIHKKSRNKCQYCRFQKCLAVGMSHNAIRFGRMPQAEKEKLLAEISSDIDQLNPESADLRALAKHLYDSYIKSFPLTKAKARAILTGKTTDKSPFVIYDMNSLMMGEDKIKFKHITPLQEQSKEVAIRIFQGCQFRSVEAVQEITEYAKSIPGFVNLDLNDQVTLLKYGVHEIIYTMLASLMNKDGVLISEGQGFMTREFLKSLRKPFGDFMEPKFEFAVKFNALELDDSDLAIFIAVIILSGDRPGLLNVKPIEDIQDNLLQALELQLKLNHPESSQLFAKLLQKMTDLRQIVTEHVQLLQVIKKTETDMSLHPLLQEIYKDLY

[3] = biological target: T1, Peroxisome proliferator-activated receptor gamma; assay: Agonist activity at human PPARgamma receptor expressed in african green monkey COS cells after 48 hrs by GAL4 transactivation assay; assay type: functional, cell-based
[4] = Clearance in Sprague-Dawley rat at 0.5 mg, iv and 2.0 mg, po; assay type: ADME, organism-based; settings: in vivo
[5] = Half life in Sprague-Dawley rat at 0.5 mg, iv and 2.0 mg, po; assay type: ADME, organism-based; settings: in vivo
[6] = Bioavailability in Sprague-Dawley rat at 0.5 mg, iv and 2.0 mg, po; assay type: ADME, organism-based; settings: in vivo
[7] = biological target: T2, Peroxisome proliferator-activated receptor alpha (Homo sapiens, UniProt Q07869); assay: (§1) Binding affinity to human PPARalpha
T2 sequence (Q07869 whole entry): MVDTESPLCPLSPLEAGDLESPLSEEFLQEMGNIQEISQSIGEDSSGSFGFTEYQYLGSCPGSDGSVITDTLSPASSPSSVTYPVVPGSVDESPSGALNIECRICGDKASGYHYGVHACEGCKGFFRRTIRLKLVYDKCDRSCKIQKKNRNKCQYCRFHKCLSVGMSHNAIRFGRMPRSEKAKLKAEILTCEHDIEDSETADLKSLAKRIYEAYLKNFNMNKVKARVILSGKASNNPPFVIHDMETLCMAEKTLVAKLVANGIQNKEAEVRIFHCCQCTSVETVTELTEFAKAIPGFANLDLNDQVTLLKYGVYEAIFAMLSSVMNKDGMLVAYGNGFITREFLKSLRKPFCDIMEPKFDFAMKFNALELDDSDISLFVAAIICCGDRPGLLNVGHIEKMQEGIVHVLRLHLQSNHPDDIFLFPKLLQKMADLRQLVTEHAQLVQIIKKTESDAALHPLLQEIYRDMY

[8] = biological target: T3, Peroxisome proliferator-activated receptor delta (Homo sapiens, UniProt Q03181); assay: Binding affinity to PPARdelta
T3 sequence (Q03181 whole entry): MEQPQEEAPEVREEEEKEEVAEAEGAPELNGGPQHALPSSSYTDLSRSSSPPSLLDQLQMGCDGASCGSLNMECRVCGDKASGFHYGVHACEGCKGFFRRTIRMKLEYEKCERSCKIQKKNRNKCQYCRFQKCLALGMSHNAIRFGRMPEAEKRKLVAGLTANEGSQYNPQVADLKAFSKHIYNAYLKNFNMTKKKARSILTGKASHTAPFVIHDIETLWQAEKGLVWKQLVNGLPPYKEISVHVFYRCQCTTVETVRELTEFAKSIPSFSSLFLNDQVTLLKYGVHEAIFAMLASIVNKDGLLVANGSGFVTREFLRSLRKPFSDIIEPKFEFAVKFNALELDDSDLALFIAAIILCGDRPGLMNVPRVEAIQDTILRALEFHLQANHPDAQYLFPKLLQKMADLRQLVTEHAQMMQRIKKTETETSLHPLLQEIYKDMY

Mus musculus [9] = assay: Antiglycemic activity in db/db mouse assessed as glucose correction at 20 mg/kg, po administered daily for 11 days; assay type: functional
Mus musculus [10] = assay: Antiglycemic activity in db/db mouse assessed as glucose correction at 50 mg/kg, po administered daily for 11 days; assay type: functional
[11] = biological target: Thromboxane A2 receptor (Homo sapiens) (UniProt P21731); assay: Inhibition of TXA2 receptor at 10 uM
Mus musculus [12] = assay: Antiglycemic activity in db/db mouse assessed as glucose correction at 30 mg/kg, po administered daily for 11 days; assay type: functional
[13] = biological target: T4, Peroxisome proliferator-activated receptor alpha (Mus musculus) (UniProt P23204); assay: Binding affinity to mouse PPARalpha
T4 sequence (whole entry): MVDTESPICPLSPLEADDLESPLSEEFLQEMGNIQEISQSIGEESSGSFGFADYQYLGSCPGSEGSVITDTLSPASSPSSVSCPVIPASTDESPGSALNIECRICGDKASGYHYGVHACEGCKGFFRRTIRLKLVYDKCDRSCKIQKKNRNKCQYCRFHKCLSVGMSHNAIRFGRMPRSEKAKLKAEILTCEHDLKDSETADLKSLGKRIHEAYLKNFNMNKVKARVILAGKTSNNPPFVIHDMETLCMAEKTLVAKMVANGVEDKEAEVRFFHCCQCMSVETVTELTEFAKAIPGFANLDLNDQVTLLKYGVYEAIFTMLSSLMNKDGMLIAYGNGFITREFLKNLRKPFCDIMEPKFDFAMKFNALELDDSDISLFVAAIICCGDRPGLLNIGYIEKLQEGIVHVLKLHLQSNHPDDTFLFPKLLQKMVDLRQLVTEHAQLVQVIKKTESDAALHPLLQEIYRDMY

Cytochrome P450 3A4 = Cytochrome P450 3A4 (Homo sapiens, UniProt P08684); assay: Inhibition of CYP3A4; assay type: ADME
[14] = biological target: Peroxisome proliferator-activated receptor alpha (Homo sapiens) (UniProt Q07869); assay: as §1

Chain of Cytochrome P450 3A4 (P08684 whole entry): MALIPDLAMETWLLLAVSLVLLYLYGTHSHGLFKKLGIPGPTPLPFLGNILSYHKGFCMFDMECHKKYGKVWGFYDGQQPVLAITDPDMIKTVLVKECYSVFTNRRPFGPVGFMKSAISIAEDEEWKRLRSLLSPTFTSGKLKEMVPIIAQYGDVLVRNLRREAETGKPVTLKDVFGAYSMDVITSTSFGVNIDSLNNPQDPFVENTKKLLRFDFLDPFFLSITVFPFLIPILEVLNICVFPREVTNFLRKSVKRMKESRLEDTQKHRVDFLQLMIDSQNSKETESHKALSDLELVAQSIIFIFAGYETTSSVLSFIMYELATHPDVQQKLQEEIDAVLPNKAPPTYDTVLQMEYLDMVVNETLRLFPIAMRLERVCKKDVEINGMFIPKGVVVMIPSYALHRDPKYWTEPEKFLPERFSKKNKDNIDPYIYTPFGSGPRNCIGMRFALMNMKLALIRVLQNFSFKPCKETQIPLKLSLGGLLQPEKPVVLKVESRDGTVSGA
Chain of Cytochrome P450 2C9 (P11712 whole entry): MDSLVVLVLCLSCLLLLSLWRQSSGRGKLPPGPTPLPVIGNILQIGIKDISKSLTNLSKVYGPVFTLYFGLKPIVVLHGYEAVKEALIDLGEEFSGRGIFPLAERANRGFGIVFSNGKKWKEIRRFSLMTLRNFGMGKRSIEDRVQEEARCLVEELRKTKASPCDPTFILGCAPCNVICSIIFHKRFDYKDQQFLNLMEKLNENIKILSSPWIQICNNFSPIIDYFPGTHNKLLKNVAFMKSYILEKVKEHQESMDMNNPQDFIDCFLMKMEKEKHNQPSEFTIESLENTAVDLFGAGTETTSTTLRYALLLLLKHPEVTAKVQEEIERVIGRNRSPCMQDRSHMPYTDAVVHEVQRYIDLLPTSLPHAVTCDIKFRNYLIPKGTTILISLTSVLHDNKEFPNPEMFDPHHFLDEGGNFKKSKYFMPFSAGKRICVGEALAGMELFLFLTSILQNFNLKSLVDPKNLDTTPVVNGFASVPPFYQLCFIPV
Chain of Thromboxane A2 receptor (Homo sapiens) (P21731 whole entry): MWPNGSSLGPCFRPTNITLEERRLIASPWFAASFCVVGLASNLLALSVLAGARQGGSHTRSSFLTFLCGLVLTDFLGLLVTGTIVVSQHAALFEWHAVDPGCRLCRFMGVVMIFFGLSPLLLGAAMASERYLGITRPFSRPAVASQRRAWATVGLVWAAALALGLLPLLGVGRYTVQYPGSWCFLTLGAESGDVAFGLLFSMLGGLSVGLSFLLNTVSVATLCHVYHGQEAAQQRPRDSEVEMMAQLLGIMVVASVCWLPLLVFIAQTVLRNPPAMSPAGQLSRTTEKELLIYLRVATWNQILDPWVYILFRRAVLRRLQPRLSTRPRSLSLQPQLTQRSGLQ

SMILES	Activity (Mus musculus [1])	pIC50 (Cytochrome P450 2C9)	pIC50 [2]	pEC50 [3]	clearance [4]	half-life [5]	bioavailability [6]	pIC50 [7]	pIC50 [8]	Activity (Mus musculus [9])	Activity (Mus musculus [10])	inhibition [11]	Activity (Mus musculus [12])	%max [13]	Activity [13]	pIC50 (Cytochrome P450 3A4)	Activity [14]
CN(CCOc1ccc(CC2SC(=O)NC2=O)cc1)c1ccccn1 (stereo unspecified) [ROSIGLITAZONE]	90%																
Cc1c(C(=O)c2ccc(Cl)cc2)c2ccc(OC(F)(F)F)cc2n1Cc1cccc(O[C@@H](C)C(=O)O)c1		5.25	9.00	9.00	21.7 mL/min/kg	1.5 h	45%										
Cc1c(Oc2ccc(Cl)cc2)c2ccc(F)nc2n1Cc1ccc(F)c(O[C@@H](C)C(=O)O)c1			7.64	7.03				< 4.30	< 4.30								
Cc1c(Oc2ccc(Cl)cc2)c2ccc(F)nc2n1Cc1cc(O[C@@H](C)C(=O)O)ccc1Cl			7.82	8.40				< 4.30	< 4.30								
Cc1c(Oc2ccc(Cl)cc2)c2ccc(C(F)(F)F)nc2n1Cc1ccc(Cl)c(O[C@@H](C)C(=O)O)c1			7.66	7.64	12.4 mL/min/kg	1.9 h	61%	< 4.30	< 4.30	18%	56%						
Cc1c(Oc2ccc(Cl)cc2)c2cccnc2n1Cc1ccc(F)c(O[C@@H](C)C(=O)O)c1			6.97	6.85				< 4.30	< 4.30								
COc1ccc(C(=O)c2c(C)n(Cc3ccc(F)c(O[C@@H](C)C(=O)O)c3)c3ncccc23)cc1			8.00	8.52				< 4.30	< 4.30								
COc1ccc(C(=O)c2c(C)n(Cc3ccc(Cl)c(O[C@@H](C)C(=O)O)c3)c3nc(OC)ccc23)cc1			> 9.00	9.00				< 4.30	< 4.30								
COc1ccc(C(=O)c2c(C)n(Cc3cc(O[C@@H](C)C(=O)O)ccc3F)c3ncccc23)cc1			8.30	8.52	31.7 mL/min/kg	1.8 h	51%	< 4.30	< 4.30	44%		64%					
COc1ccc(C(=O)c2c(C)n(Cc3cc(O[C@@H](C)C(=O)O)ccc3F)c3nc(OC)ccc23)cc1	33%		8.70	9.00	7.4 mL/min/kg	1.4 h	37%	< 4.30	< 4.30		34%		35%				
Cc1c(Oc2ccc(Cl)cc2)c2cccnc2n1Cc1cc(O[C@@H](C)C(=O)O)ccc1Cl			7.60	7.44	21.8 mL/min/kg	1.2 h	61%	< 4.30	< 4.30								
Cc1c(Oc2ccc(Cl)cc2)c2ccc(F)nc2n1Cc1ccc(Cl)c(O[C@@H](C)C(=O)O)c1			8.52	8.40	23 mL/min/kg	0.8 h	47%	< 4.30	< 4.30				30%				
COc1ccc(C(=O)c2c(C)n(Cc3cc(O[C@@H](C)C(=O)O)ccc3F)c3nc(C)ccc23)cc1	63%		8.40	8.70	32 mL/min/kg	1.9 h	105%							28%	500 nM		
COc1ccc(C(=O)c2c(C)n(Cc3cccc(O[C@@H](C)C(=O)O)c3)c3ncccc23)cc1	29%		7.18	7.57	115 mL/min/kg	2 h	29%	< 4.30	< 4.30							< 4.00	
Cc1c(Oc2ccc(Cl)cc2)c2ccc(Cl)nc2n1Cc1ccc(Cl)c(O[C@@H](C)C(=O)O)c1	32%		8.52	8.40	27 mL/min/kg	1.2 h	56%	< 4.30	< 4.30				44%				
COc1ccc(C(=O)c2c(C)n(Cc3cccc(O[C@H](C)C(=O)O)c3)c3ncccc23)cc1			6.14	5.53					< 4.30						Active		Active
COc1ccc(C(=O)c2c(C)n(Cc3cccc(O[C@@H](C)C(=O)O)c3)c3nc(C)ccc23)cc1	42%		7.80	8.05	28 mL/min/kg	2.4 h	80%	< 4.30	< 4.30								
COc1ccc(C(=O)c2c(C)n(Cc3ccc(F)c(O[C@@H](C)C(=O)O)c3)c3nc(OC)ccc23)cc1	23%		9.00	9.00											222 nM		489 nM
Cc1c(Oc2ccc(Cl)cc2)c2cccnc2n1Cc1cc(O[C@@H](C)C(=O)O)ccc1F			7.27	6.81	22.1 mL/min/kg	1.6 h	77%	< 4.30	< 4.30								
COc1ccc(C(=O)c2c(C)n(Cc3cc(O[C@@H](C)C(=O)O)ccc3Cl)c3nc(OC)ccc23)cc1			8.70	8.70				< 4.30	< 4.30				32%				
